Results published in ChEMBL document CHEMBL4043107, “Stable C-N axial chirality in 1-aryluracil scaffold and differences in in vitro metabolic clearance between atropisomers of PDE4 inhibitor” (Bioorg Med Chem, 2017).
“And” between values parts separate entries of the source, which are not always exact repeats. Equal values may be shown once.

Molecular target: 3',5'-cyclic-AMP phosphodiesterase 4A (Homo sapiens, UniProt P27815)
Assay: Inhibition of human full length recombinant PDE4A1A using FAM-cAMP as substrate after 30 mins by fluorescence based spectrophotometric method

3',5'-cyclic-AMP phosphodiesterase 4A, sequence (P27815 whole entry): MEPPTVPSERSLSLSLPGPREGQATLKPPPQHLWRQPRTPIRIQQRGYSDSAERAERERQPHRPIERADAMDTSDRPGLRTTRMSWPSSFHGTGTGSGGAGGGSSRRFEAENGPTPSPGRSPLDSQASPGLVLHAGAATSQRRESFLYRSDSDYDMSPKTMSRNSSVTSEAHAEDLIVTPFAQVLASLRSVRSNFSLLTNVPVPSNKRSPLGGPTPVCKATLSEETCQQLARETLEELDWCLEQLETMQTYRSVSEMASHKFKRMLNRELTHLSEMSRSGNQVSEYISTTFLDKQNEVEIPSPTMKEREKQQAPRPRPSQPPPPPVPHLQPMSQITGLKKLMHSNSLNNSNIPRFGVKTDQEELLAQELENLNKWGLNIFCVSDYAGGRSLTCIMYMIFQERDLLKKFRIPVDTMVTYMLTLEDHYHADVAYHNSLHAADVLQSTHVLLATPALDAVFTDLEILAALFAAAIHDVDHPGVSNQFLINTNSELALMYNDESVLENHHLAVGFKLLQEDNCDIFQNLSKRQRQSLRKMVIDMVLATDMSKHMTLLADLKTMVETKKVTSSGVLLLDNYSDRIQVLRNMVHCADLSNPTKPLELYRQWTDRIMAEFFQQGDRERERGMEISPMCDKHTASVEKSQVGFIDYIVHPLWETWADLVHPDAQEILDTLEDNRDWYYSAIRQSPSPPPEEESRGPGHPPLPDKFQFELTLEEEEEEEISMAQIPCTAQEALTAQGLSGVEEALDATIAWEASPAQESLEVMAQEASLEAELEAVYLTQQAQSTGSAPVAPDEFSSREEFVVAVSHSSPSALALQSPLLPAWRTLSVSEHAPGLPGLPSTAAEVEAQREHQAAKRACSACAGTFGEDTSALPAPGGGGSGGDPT

IC50: 70 µM and 125 µM
SMILES: CCCn1c(=O)c2ccc(N)nc2n(-c2cc(OC)ccc2OC)c1=O
